Source: patent publication US20180044738A1, “METHOD OF DIAGNOSING BREAST CANCER, MONITORING TREATMENT OF BREAST CANCER, AND TREATING BREAST CANCER” (University Of Cincinnati, priority 2016, published 2018)
Like-named read-outs stand apart in the source and are kept apart here.

System: Xenograft tumors
From the text: Xenograft tumors derived from luciferase-expressing MDA-MB-231 and SUM159 cells will be implanted orthotopically in female nude mice. […] Initial dose of the aptamers will follow the previous animal studies (weekly intra-tumoral injection; 2000 pmol each time delivered in 10 sub-injections). The optimal dose will be determined empirically based on the effect on tumor volumes. The lapatinib plus imatinib group will be used to compare the tumor suppression efficacy of drug treatment with the aptamers. […] Tumor volume will be measured weekly with a caliper, and also by an IVIS imaging system (Xenogen) which can reveal potential metastatic sites. Apoptosis will be assessed by TUNEL assay of the tumor tissues; proliferation will be assayed by in vivo BrdU incorporation analysis. Primary tumor with adjacent normal tissues will be examined by hematoxylin/eosin (H&E) staining. Tumor invasion will be assessed based on the extent of infiltration into surrounding tissues, the margins from surrounding tissues, and desomoplastic stromal reaction by smooth muscle actin staining. Human origin of the invasive cells will be confirmed by staining for human cytokeratin.

Compound	tumor growth (mouse, in vivo, po, 100 mg/kg)	tumor growth (oral gavage, 100 mg/kg of each drug, in a month, preliminary results, data not shown)
Cc1ccc(NC(=O)c2ccc(CN3CCN(C)CC3)cc2)cc1Nc1nccc(-c2cccnc2)n1 [imatinib]	not either drug alone	
CS(=O)(=O)CCNCc1ccc(-c2ccc3ncnc(Nc4ccc(OCc5cccc(F)c5)c(Cl)c4)c3c2)o1 [lapatinib]		not either drug alone
